Laboratory results published in patent US7446199B2, “Compositions useful as inhibitors of protein kinases” (Vertex Pharmaceuticals Incorporated, priority 2003, dated 2008).

Key:
GSK-3β, (AA 1-420) = GSK-3β, (AA 1-420) (Homo sapiens, UniProt P49841); assay: GSK-3 inhibition assay, coupled enzyme system; assay type: biochemical; details: 20 μM ATP, 300 μM peptide, 20 nM GSK-3b, 30° C.; read-out: Ki values (GSK3)
In short: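 Pyruvate kinase/lactate dehydrogenase-coupled NADH assay with 20 nM enzyme, 20 μM ATP and 300 μM peptide in HEPES pH 7.5, 1.5% DMSO, 30° C. Compound (0.002–30 μM, 12-point) preincubated 10 min before ATP start; rates over 10 min gave Ki.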

FLT-3 = target: T1, FLT-3 (Homo sapiens, UniProt P36888); assay: Inhibition of FLT-3, radiometric filter-binding assay; assay type: biochemical; details: 90 μM ATP, 0.5 mg/mL pE4Y, room temperature
T1 construct: 0.02% BSA and 3 nM FLT-3
T1 sequence (P36888 27-993): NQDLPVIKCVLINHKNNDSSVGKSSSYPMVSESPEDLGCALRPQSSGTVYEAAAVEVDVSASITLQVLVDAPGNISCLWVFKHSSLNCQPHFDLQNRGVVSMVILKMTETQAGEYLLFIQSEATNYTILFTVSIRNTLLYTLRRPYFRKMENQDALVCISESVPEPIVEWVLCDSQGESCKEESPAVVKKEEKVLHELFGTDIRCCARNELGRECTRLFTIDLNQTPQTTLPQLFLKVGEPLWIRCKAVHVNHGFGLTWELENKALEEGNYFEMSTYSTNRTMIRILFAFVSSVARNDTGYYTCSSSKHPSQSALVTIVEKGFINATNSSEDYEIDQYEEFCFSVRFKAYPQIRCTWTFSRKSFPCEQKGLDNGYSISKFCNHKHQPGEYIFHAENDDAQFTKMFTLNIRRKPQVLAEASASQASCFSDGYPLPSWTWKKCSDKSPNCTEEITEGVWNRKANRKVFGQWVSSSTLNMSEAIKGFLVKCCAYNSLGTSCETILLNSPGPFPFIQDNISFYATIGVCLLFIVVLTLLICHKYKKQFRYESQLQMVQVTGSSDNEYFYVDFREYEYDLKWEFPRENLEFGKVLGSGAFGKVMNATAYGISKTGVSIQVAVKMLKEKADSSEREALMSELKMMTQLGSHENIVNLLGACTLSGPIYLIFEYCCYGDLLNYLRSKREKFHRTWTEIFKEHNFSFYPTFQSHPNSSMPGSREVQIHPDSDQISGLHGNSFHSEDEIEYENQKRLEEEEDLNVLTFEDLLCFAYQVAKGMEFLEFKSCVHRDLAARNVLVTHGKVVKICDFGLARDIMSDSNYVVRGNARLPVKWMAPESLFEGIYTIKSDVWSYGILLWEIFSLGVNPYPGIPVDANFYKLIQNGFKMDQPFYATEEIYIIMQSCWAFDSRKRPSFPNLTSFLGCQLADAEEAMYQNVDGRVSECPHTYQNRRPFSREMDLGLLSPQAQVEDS
Procedure: Compounds were screened for their ability to inhibit FLT-3 activity using a radiometric filter-binding assay. This assay monitors the ^33P incorporation into a substrate poly(Glu, Tyr) 4:1 (pE4Y). Reactions were carried out in a solution containing 100 mM HEPES (pH 7.5), 10 mM MgCl2, 25 mM NaCl, 1 mM DTT, 0.01% BSA and 2.5% DMSO. Final substrate concentrations in the assay were 90 μM ATP and 0.5 mg/mL pE4Y (both from Sigma Chemicals, St Louis, Mo.). The final concentration of compounds is generally between 0.01 and 5 μM. Typically, a 12-point titration was conducted by preparing serial dilutions from 10 mM DMSO stock of test compound. Reactions were carried out at room temperature.
Two assay solutions were prepared. Solution 1 contains 100 mM HEPES (pH 7.5), 10 mM MgCl2, 25 mM NaCl, 1 mg/ml pE4Y and 180 μM ATP(containing 0.3 μCi of [γ-^33P]ATP for each reaction). Solution 2 contains 100 mM HEPES (pH 7.5), 10 mM MgCl2, 25 mM NaCl, 2 mM DTT, 0.02% BSA and 3 nM FLT-3. The assay was run on a 96 well plate by mixing 50 μL each of Solution 1 and […] of the test compounds. The reaction was initiated with Solution2. After incubation for 20 minutes at room temperature, the reaction was stopped with 50 μL of 20% TCA containing 0.4 mM of ATP. All of the reaction volume was then transferred to a filter plate and washed with 5% TCA by a Harvester9600 from TOMTEC (Hamden, Conn.). The amount of ^33P incorporation into pE4y was analyzed by a Packard TopCount Microplate Scintillation Counter (Meriden, Conn.). The data was fitted using Prism software to get an IC50 or Ki.

Sequence of GSK-3β, (AA 1-420) (P49841 whole entry, the tested form may be a part): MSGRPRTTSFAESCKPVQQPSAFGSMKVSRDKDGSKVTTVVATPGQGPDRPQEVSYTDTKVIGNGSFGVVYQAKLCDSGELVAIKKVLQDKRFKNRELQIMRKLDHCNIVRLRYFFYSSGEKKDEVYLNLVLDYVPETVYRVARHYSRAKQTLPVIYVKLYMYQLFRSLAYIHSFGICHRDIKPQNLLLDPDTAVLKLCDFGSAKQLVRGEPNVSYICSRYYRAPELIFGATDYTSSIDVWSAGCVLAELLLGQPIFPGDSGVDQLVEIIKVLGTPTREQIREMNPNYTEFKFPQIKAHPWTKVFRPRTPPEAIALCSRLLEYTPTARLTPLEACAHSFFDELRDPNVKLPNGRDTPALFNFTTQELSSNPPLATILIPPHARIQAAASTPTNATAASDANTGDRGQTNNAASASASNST

Compound	Ki (GSK-3β, (AA 1-420)) [µM]	Ki (FLT-3) [µM]
CN(C)CC#Cc1cnc2[nH]cc(-c3oncc3-c3cccc(F)c3F)c2c1 [Compound 53, (3-{3-[4-(2,3-Difluoro-phenyl)-isoxazol-5-yl]-1H-pyrrolo[2,3-b]pyridin-5-yl}-prop-2-ynyl)-dimethyl-amine]	0.2 to 1	0.2 to 1
Fc1cccc(-c2cnoc2-c2c[nH]c3ncc(-c4ccncc4)cc23)c1F [Compound 57, 3-[4-(2,3-Difluoro-phenyl)-isoxazol-5-yl]-5-pyridin-4-yl-1H-pyrrolo[2,3-b]pyridine]	0.2 to 1	< 0.2
Fc1cccc(-c2cnoc2-c2c[nH]c3ncc(-c4ccccc4)cc23)c1F [Compound 58, 3-[4-(2,3-Difluoro-phenyl)-isoxazol-5-yl]-5-phenyl-1H-pyrrolo[2,3-b]pyridine]	0.2 to 1	0.2 to 1
Fc1cccc(-c2cnoc2-c2c[nH]c3ncc(-c4cccnc4)cc23)c1F [Compound 59, 3-[4-(2,3-Difluoro-phenyl)-isoxazol-5-yl]-5-pyridin-3-yl-1H-pyrrolo[2,3-b]pyridine]	0.2 to 1	< 0.2
CN1CCC(c2cnc3[nH]cc(-c4oncc4-c4cccc(F)c4F)c3c2)CC1 [Compound 60, 3-[4-(2,3-Difluoro-phenyl)-isoxazol-5-yl]-5-(1-methyl-piperidin-4-yl)-1H-pyrrolo[2,3-b]pyridine]	0.2 to 1	1 to 12.5
CN(C)c1cccc(-c2cnc3[nH]cc(-c4oncc4-c4cccc(F)c4F)c3c2)c1 [Compound 61, (3-{3-[4-(2,3-Difluoro-phenyl)-isoxazol-5-yl]-1H-pyrrolo[2,3-b]pyridin-5-yl}-phenyl)-dimethyl-amine]	0.2 to 1	0.2 to 1
Fc1cccc(-c2cnoc2-c2c[nH]c3ncc(C4CCNCC4)cc23)c1F [Compound 62, 3-[4-(2,3-Difluoro-phenyl)-isoxazol-5-yl]-5-piperidin-4-yl-1H-pyrrolo[2,3-b]pyridine]	0.2 to 1	0.2 to 1
CC(=O)N1CCC(c2cnc3[nH]cc(-c4oncc4-c4cccc(F)c4F)c3c2)CC1 [Compound 63, 1-(4-{3-[4-(2,3-Difluoro-phenyl)-isoxazol-5-yl]-1H-pyrrolo[2,3-b]pyridin-5-yl}-piperidin-1-yl)-ethanone]	< 0.2	0.2 to 1
N#CCC(=O)N1CCC(c2cnc3[nH]cc(-c4oncc4-c4cccc(F)c4F)c3c2)CC1 [Compound 64, 3-(4-{3-[4-(2,3-Difluoro-phenyl)-isoxazol-5-yl]-1H-pyrrolo[2,3-b]pyridin-5-yl}-piperidin-1-yl)-3-oxo-propionitrile]	< 0.2	0.2 to 1
CC(=O)Nc1cccc(-c2cnc3[nH]cc(-c4oncc4-c4cccc(F)c4F)c3c2)c1 [Compound 65, N-(3-{3-[4-(2,3-Difluoro-phenyl)-isoxazol-5-yl]-1H-pyrrolo[2,3-b]pyridin-5-yl}-phenyl)-acetamide]	0.2 to 1	< 0.2
C=Cc1cnc2[nH]cc(-c3oncc3-c3cccc(F)c3F)c2c1 [Compound 66, 3-[4-(2,3-Difluoro-phenyl)-isoxazol-5-yl]-5-vinyl-1H-pyrrolo[2,3-b]pyridine]	0.2 to 1	0.2 to 1
Fc1cccc(-c2cnoc2-c2c[nH]c3ncc(-c4ccc(N5CCNCC5)cc4)cc23)c1F [Compound 68, 3-[4-(2,3-Difluoro-phenyl)-isoxazol-5-yl]-5-(4-piperazin-1-yl-phenyl)-1H-pyrrolo[2,3-b]pyridine]	< 0.2	< 0.2
Fc1ccc(-c2cnc3[nH]cc(-c4oncc4-c4cccc(F)c4F)c3c2)cn1 [Compound 69, 3-[4-(2,3-Difluoro-phenyl)-isoxazol-5-yl]-5-(6-fluoro-pyridin-3-yl)-1H-pyrrolo[2,3-b]pyridine]	< 0.2	0.2 to 1
CN1CCN(c2ccc(-c3cnc4[nH]cc(-c5oncc5-c5cccc(F)c5F)c4c3)cc2)CC1 [Compound 70, 3-[4-(2,3-Difluoro-phenyl)-isoxazol-5-yl]-5-[4-(4-methyl-piperazin-1-yl)-phenyl]-1H-pyrrolo[2,3-b]pyridine methanesulfonate]	< 0.2	< 0.2
CN1CCN(c2ccc(-c3cnc4[nH]cc(-c5oncc5-c5cccc(F)c5F)c4c3)cn2)CC1 [Compound 71, 3-[4-(2,3-Difluoro-phenyl)-isoxazol-5-yl]-5-[6-(4-methyl-piperazin-1-yl)-pyridin-3-yl]-1H-pyrrolo[2,3-b]pyridine]	0.2 to 1	< 0.2
CCN1CCC(c2cnc3[nH]cc(-c4oncc4-c4cccc(F)c4F)c3c2)CC1 [Compound 72, 3-[4-(2,3-Difluoro-phenyl)-isoxazol-5-yl]-5-(1-ethyl-piperidin-4-yl)-1H-pyrrolo[2,3-b]pyridine]	< 0.2	1 to 12.5
Fc1cccc(-c2cnoc2-c2c[nH]c3ncc(-c4ncccn4)cc23)c1F [Compound 75, 3-[4-(2,3-Difluoro-phenyl)-isoxazol-5-yl]-5-pyrimidin-2-yl-1H-pyrrolo[2,3-b]pyridine]	1 to 12.5	0.2 to 1
Fc1cccc(-c2cnoc2-c2c[nH]c3ncc(-c4c[nH]cn4)cc23)c1F [Compound 76, 3-[4-(2,3-Difluoro-phenyl)-isoxazol-5-yl]-5-(3H-imidazol-4-yl)-1H-pyrrolo[2,3-b]pyridine]	0.2 to 1	< 0.2
Fc1cccc(-c2cnoc2-c2c[nH]c3ncc(-c4cnc5[nH]ccc5c4)cc23)c1F [Compound 77, 3-[4-(2,3-Difluoro-phenyl)-isoxazol-5-yl]-1H,1′H-[5,5′]bi[pyrrolo[2,3-b]pyridinyl]]	0.2 to 1	< 0.2
COc1ccnc(-c2cnc3[nH]cc(-c4oncc4-c4cccc(F)c4F)c3c2)c1 [Compound 78, 3-[4-(2,3-Difluoro-phenyl)-isoxazol-5-yl]-5-(4-methoxy-pyridin-2-yl)-1H-pyrrolo[2,3-b]pyridine]	0.2 to 1	0.2 to 1
CN(C)C(=O)c1ccc(-c2cnc3[nH]cc(-c4oncc4-c4cccc(F)c4F)c3c2)nc1 [Compound 79, 6-{3-[4-(2,3-Difluoro-phenyl)-isoxazol-5-yl]-1H-pyrrolo [2,3-b]pyridin-5-yl}-N,N-dimethyl-nicotinamide]	0.2 to 1	< 0.2
CN(C)c1ccnc(-c2cnc3[nH]cc(-c4oncc4-c4cccc(F)c4F)c3c2)c1 [Compound 80, (2-{3-[4-(2,3-Difluoro-phenyl)-isoxazol-5-yl]-1H-pyrrolo[2,3-b]pyridin-5-yl}-pyridin-4-yl)-dimethyl-amine]	1 to 12.5	1 to 12.5
CN(C)Cc1cc(Cl)nc(-c2cnc3[nH]cc(-c4oncc4-c4cccc(F)c4F)c3c2)c1 [Compound 81, (2-Chloro-6-{3-[4-(2,3-difluoro-phenyl)-isoxazol-5-yl]-1H-pyrrolo[2,3-b]pyridin-5-yl}-pyridin-4-ylmethyl)-dimethyl-amine]	0.2 to 1	0.2 to 1
CN(C)Cc1ccnc(-c2cnc3[nH]cc(-c4oncc4-c4cccc(F)c4F)c3c2)c1 [Compound 82, (2-{3-[4-(2,3-Difluoro-phenyl)-isoxazol-5-yl]-1H-pyrrolo[2,3-b]pyridin-5-yl}-pyridin-4-ylmethyl)-dimethyl-amine]	< 0.2	< 0.2
